Measured values taken from ChEMBL document CHEMBL1201862, “PubChem BioAssay data set” (2004).
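Cells were grown in 96-well plates and exposed to each compound for 48 hours at five concentrations; endpoints were interpolated linearly between bracketing concentrations, or set to the highest concentration if not reached. GI50: concentration for 50% inhibition of growth.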 Active and inactive are the calls of the source. Rule as the data show it: active = GI50 up to about 1.1 µM and inactive = higher.

Columns and labels:
Experiment in all cases: NCI tumour cell line growth inhibition, 48 h
786-0 = system: 786-0
A498 = system: A498
A549 = system: A549
ACHN = system: ACHN
CAKI-1 = system: CAKI-1
CCRF-CEM = system: CCRF-CEM
COLO 205 = system: COLO 205
DLD-1 = system: DLD-1
DMS-114 = system: DMS-114
DMS-273 = system: DMS-273
EKVX = system: EKVX
HCC 2998 = system: HCC 2998
HCT-15 = system: HCT-15
HL-60 = system: HL-60
HOP-18 = system: HOP-18
HOP-62 = system: HOP-62
HOP-92 = system: HOP-92
IGROV-1 = system: IGROV-1
K562 = system: K562
KM-20L2 = system: KM-20L2
KM12 = system: KM12
LXFL 529 = system: LXFL 529
M14 = system: M14
M19-MEL = system: M19-MEL
MOLT-4 = system: MOLT-4
Malme-3M = system: Malme-3M
NCI-H226 = system: NCI-H226
NCI-H23 = system: NCI-H23
NCI-H460 = system: NCI-H460
NCI-H522 = system: NCI-H522
OVCAR-3 = system: OVCAR-3
OVCAR-4 = system: OVCAR-4
OVCAR-5 = system: OVCAR-5
OVCAR-8 = system: OVCAR-8
RPMI-8226 = system: RPMI-8226
RXF 631 = system: RXF 631
SF-268 = system: SF-268
SF-295 = system: SF-295
SF-539 = system: SF-539
SK-MEL-28 = system: SK-MEL-28
SK-MEL-2 = system: SK-MEL-2
SK-MEL-5 = system: SK-MEL-5
SK-OV-3 = system: SK-OV-3
SN12C = system: SN12C
SNB-19 = system: SNB-19
SNB-75 = system: SNB-75
SNB-78 = system: SNB-78
SW-620 = system: SW-620
TK-10 = system: TK-10
U-251 = system: U-251
UACC-257 = system: UACC-257
UACC-62 = system: UACC-62
UO-31 = system: UO-31

With `CCn1c(=O)nc2n(-c3ccc(SC)cc3)c3ccccc3nc-2c1=O` the GI50 (786-0) was > 100 µM (inactive), the GI50 (A498) was > 100 µM (inactive) and the GI50 (A549) was 29.1 µM (inactive). For the same compound, the GI50 (ACHN) was 1.87 µM (inactive), the GI50 (CAKI-1) was 32.9 µM (inactive) and the GI50 (CCRF-CEM) was > 100 µM (inactive). For the same compound, the GI50 (COLO 205) was 8.15 µM (inactive), the GI50 (DLD-1) was > 100 µM (inactive) and the GI50 (DMS-114) was 69.7 µM (inactive). For the same compound, the GI50 (DMS-273) was 71.1 µM (inactive), the GI50 (EKVX) was > 100 µM (inactive) and the GI50 (HCC 2998) was 29 µM (inactive). The GI50 (HCT-15) was over 100 µM, the GI50 (HL-60) was 35.7 µM (inactive) and the GI50 (HOP-18) was > 100 µM (inactive). The GI50 (HOP-62) was > 100 µM (inactive), the GI50 (HOP-92) was > 100 µM (inactive) and the GI50 (IGROV-1) was > 100 µM (inactive). The GI50 (K562) was > 100 µM (inactive), the GI50 (KM-20L2) was 40.5 µM (inactive) and the GI50 (KM12) was > 100 µM (inactive). For the same compound, the GI50 (LXFL 529) was > 100 µM (inactive), the GI50 (M14) was > 100 µM (inactive) and the GI50 (M19-MEL) was 30.7 µM (inactive). For the same compound, the GI50 (MOLT-4) was > 100 µM (inactive), the GI50 (Malme-3M) was > 100 µM (inactive) and the GI50 (NCI-H226) was > 100 µM (inactive). For the same compound, the GI50 (NCI-H23) was > 100 µM (inactive), the GI50 (NCI-H460) was 20.9 µM (inactive) and the GI50 (NCI-H522) was > 100 µM (inactive). For the same compound, the GI50 (OVCAR-3) was 24.6 µM (inactive), the GI50 (OVCAR-4) was > 100 µM (inactive) and the GI50 (OVCAR-5) was > 100 µM (inactive). For the same compound, the GI50 (OVCAR-8) was > 100 µM (inactive), the GI50 (RPMI-8226) was 71.1 µM (inactive) and the GI50 (RXF 631) was > 100 µM (inactive). For the same compound, the GI50 (SF-268) was 79.8 µM (inactive), the GI50 (SF-295) was > 100 µM (inactive) and the GI50 (SF-539) was 54 µM (inactive). For the same compound, the GI50 (SK-MEL-28) was > 100 µM (inactive), the GI50 (SK-MEL-2) was > 100 µM (inactive) and the GI50 (SK-MEL-5) was 9.42 µM (inactive). For the same compound, the GI50 (SK-OV-3) was > 100 µM (inactive), the GI50 (SN12C) was > 100 µM (inactive) and the GI50 (SNB-19) was > 100 µM (inactive). For the same compound, the GI50 (SNB-75) was 76 µM (inactive), the GI50 (SNB-78) was > 100 µM (inactive) and the GI50 (SW-620) was 17.7 µM (inactive). For the same compound, the GI50 (TK-10) was > 100 µM (inactive), the GI50 (U-251) was > 100 µM (inactive) and the GI50 (UACC-257) was > 100 µM (inactive). For the same compound, the GI50 (UACC-62) was 50.9 µM (inactive) and the GI50 (UO-31) was > 100 µM (inactive).
